For 18 compounds, IC50 results are on record in patent US10961228B2, “JAK1 selective inhibitors” (AstraZeneca AB, priority 2017, dated 2021).

For assay [1], the target named is recombinant JAK2 (amino acids 831-1132) (Homo sapiens (Human), UniProt O60674). As to the kind of experiment: Enzyme inhibition studies, JAK2 (5 mM ATP, Caliper). The assay is classed as biochemical. The procedure: (§1) JAK enzyme was expressed as N-terminal GST fusion in insect cells and purified by glutathione-affinity and size-exclusion chromatographies. Enzymes were assayed at their approximated high end of physiological ATP concentration of 5 mM, in the presence of inhibitor dosed at 30, 3, 0.3, 0.03, 0.003 and 0 μM final test concentrations.
Sequence of recombinant JAK2 (amino acids 831-1132) (O60674 831-1132): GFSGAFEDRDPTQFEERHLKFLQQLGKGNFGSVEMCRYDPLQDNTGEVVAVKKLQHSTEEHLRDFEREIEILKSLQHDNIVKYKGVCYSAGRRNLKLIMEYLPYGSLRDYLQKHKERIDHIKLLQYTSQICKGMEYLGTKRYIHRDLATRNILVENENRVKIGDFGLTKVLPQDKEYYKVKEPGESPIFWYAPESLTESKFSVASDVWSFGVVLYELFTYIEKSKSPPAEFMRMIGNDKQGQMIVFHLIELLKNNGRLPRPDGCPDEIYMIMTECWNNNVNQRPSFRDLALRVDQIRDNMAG
(§2) Phosphorylated and unphosphotylated peptides were separated and quantified by a Caliper LC3000 system (Caliper Life Sciences, MA) for calculating percent inhibition.

Assay [2] has as its system IL-13 induced STAT6 promotor luciferase reporter in U937 monocytes (U937-STAT6-Luc). The assay can be described thus: Cellular interleukin (IL-13) induced JAK-STAT6-luciferase assay (pSTAT6). The assay is classed as cell-based. The note with it: Homo sapiens, U-937; IL-13 induced STAT6-luciferase, U937-STAT6-Luc cells. On the procedure:
Cells were harvested by centrifugation at 250 g for 5 min and resuspended in Assay buffer (20 mM HEPES, 1×HBSS and 0.1% BSA) to 1000 cells pr μl. For stimulation of cells was used interleukin (IL-13) also dissolved in Assay buffer to […]. […] Test and control compounds were applied to assay plates (low vol white 384-well plates) in serial dilutions from 10 mM to 0.5 nM at 5 nl pr well in DMSO.
To each well was added 4 μl cells and 4 μl interleukin (IL-13) and the plates were sealed and incubated at 37° C. for 4½ h and then at room temperature for 30 min. The assay was developed by addition of 4 μl pr well of SteadyGlo (Promega) and after […] the plates were read at an Envision plate reader with luminescence filter.

Assay [3] addresses recombinant JAK1 (amino acids 866-1154) (Homo sapiens (Human), UniProt P23458). The assay can be described thus: Enzyme inhibition studies, JAK1 (5 mM ATP, Caliper). The assay is classed as biochemical. The procedure:
as §1, §2

Assay [4] concerns the target recombinant JAK3 (amino acids 781-1124) (Homo sapiens (Human), UniProt P52333). As to the kind of experiment: Enzyme inhibition studies, JAK3 (5 mM ATP, Caliper). Type of assay: biochemical. On the procedure:
as §1, §2

Where only a bound is given, the exact number is not on record here.

The term IC50 denotes the concentration at which inhibition is half-maximal.

Sequence of recombinant JAK3 (amino acids 781-1124) (P52333 781-1124): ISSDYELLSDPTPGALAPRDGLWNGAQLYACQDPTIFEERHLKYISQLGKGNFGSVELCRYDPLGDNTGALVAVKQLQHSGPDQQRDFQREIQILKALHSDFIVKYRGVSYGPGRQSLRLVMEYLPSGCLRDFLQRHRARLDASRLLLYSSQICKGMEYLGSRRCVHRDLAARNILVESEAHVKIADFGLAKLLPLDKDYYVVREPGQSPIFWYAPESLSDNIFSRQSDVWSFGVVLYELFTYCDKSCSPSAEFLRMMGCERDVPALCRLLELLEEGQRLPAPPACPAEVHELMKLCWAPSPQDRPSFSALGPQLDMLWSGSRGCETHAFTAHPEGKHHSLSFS
Sequence of recombinant JAK1 (amino acids 866-1154) (P23458 866-1154): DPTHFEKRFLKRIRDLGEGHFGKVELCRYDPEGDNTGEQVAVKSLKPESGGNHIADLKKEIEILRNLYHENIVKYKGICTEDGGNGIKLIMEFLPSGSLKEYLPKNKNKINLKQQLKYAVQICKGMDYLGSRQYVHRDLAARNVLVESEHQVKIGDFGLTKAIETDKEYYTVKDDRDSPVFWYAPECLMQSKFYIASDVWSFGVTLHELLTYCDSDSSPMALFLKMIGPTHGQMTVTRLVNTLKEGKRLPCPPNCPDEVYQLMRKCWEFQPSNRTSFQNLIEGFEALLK

Regarding `C[C@H](C(=O)Nc1cccc2c(-c3nc(Nc4cccc(S(C)(=O)=O)c4F)ncc3Cl)c[nH]c12)N1CCN(C)CC1` [Example 5], the IC50 in assay [1] is 5020 nM; in assay [2], 29 nM; in assay [3], 5.1 nM; in assay [4] it was > 30000 nM.

With `Cc1cnc(Nc2cccc(S(C)(=O)=O)c2F)nc1-c1c[nH]c2c(NC(=O)[C@H](C)N3CCN(C)CC3)cccc12` [Example 6, (S)-N-(3-(2-((2-fluoro-3-(methylsulfonyl)phenyl)amino)-5-methylpyrimidin-4-yl)-1H-indol-7-yl)-2-(4-methylpiperazin-1-yl)propanamide], the IC50 is > 30000 nM in assay [1], 172 nM in assay [2], 57.4 nM in assay [3] and > 30000 nM in assay [4].

Take `Cc1cnc(Nc2cccc(S(C)(=O)=O)c2F)nc1-c1c[nH]c2c(NC(=O)[C@@H](C)N3C[C@H](C)N(C)[C@@H](C)C3)cccc12` [Example 7, (R)-N-(3-(2-((2-fluoro-3-(methylsulfonyl)phenyl)amino)-5-methylpyrimidin-4-yl)-1H-indol-7-yl)-2-((3S,5S)-3,4,5-trimethylpiperazin-1-yl)propanamide]: the IC50 in assay [1] was 14500 nM; in assay [2], 57 nM; in assay [3] it was 6.6 nM; in assay [4], > 30000 nM.

Consider `C[C@H](C(=O)Nc1cccc2c(-c3nc(Nc4cccc(S(C)(=O)=O)c4F)ncc3F)c[nH]c12)N1C[C@H](C)N(C)[C@@H](C)C1` [Example 8, (R)-N-(3-(5-fluoro-2-((2-fluoro-3-(methylsulfonyl)phenyl)amino)pyrimidin-4-yl)-1H-indol-7-yl)-2-((3S,5S)-3,4,5-trimethylpiperazin-1-yl)propanamide], for which the IC50 in assay [1] was > 30000 nM; in assay [2], 78 nM; in assay [3] it was 24.5 nM; in assay [4], > 30000 nM.

`Cc1cnc(Nc2cccc(S(C)(=O)=O)c2F)nc1-c1c[nH]c2c(NC(=O)[C@H](C)N3C[C@H](C)N[C@@H](C)C3)cccc12` [Example 10, (S)-2-((3S,5S)-3,5-dimethylpiperazin-1-yl)-N-(3-(2-((2-fluoro-3-(methylsulfonyl)phenyl)amino)-5-methylpyrimidin-4-yl)-1H-indol-7-yl)propanamide]: the IC50 was 21000 nM in assay [1], 352 nM in assay [2], 39.8 nM in assay [3] and > 30000 nM in assay [4].

With `C[C@H](C(=O)Nc1cccc2c(-c3nc(Nc4cccc(S(C)(=O)=O)c4F)ncc3F)c[nH]c12)N1C[C@H](C)N[C@@H](C)C1` [Example 11, (R)-2-((3S,5S)-3,5-dimethylpiperazin-1-yl)-N-(3-(5-fluoro-2-((2-fluoro-3-(methylsulfonyl)phenyl)amino)pyrimidin-4-yl)-1H-indol-7-yl)propanamide], the IC50 in assay [1] is 11100 nM; in assay [2], 85 nM; in assay [3] it was 13.1 nM; in assay [4], > 30000 nM.

`C[C@H]1CN([C@@H](C)C(=O)Nc2cccc3c(-c4nc(Nc5cccc(S(C)(=O)=O)c5F)ncc4F)c[nH]c23)C[C@H](C)N1` [Example 12, (S)-2-((3S,5S)-3,5-dimethylpiperazin-1-yl)-N-(3-(5-fluoro-2-((2-fluoro-3-(methylsulfonyl)phenyl)amino)pyrimidin-4-yl)-1H-indol-7-yl)propanamide]: the IC50 was > 30000 nM in assay [1], > 4950 nM in assay [2], 1130 nM in assay [3] and > 30000 nM in assay [4].

Consider `CC[C@@H](C(=O)Nc1cccc2c(-c3nc(Nc4cccc(S(C)(=O)=O)c4F)ncc3C)c[nH]c12)N1CCN(C)CC1` [Example 13, (S)-N-(3-(2-((2-fluoro-3-(methylsulfonyl)phenyl)amino)-5-methylpyrimidin-4-yl)-1H-indol-7-yl)-2-(4-methylpiperazin-1-yl)butanamide], for which the IC50 is 26100 nM in assay [1], 97 nM in assay [2], 22.4 nM in assay [3] and > 30000 nM in assay [4].

With `CC[C@H](C(=O)Nc1cccc2c(-c3nc(Nc4cccc(S(C)(=O)=O)c4F)ncc3C)c[nH]c12)N1CCN(C)CC1` [Example 14, (R)-N-(3-(2-((2-fluoro-3-(methylsulfonyl)phenyl)amino)-5-methylpyrimidin-4-yl)-1H-indol-7-yl)-2-(4-methylpiperazin-1-yl)butanamide], the IC50 in assay [1] is 2430 nM; in assay [2], 21 nM; in assay [3], < 3 nM; in assay [4], > 30000 nM.

`CC[C@H](C(=O)Nc1cccc2c(-c3nc(Nc4cccc(S(C)(=O)=O)c4F)ncc3F)c[nH]c12)N1CCCN(C)CC1` [Example 17]: the 50% inhibitory concentration (IC50) is 4860 nM in assay [1], 90 nM in assay [2], 3.6 nM in assay [3] and > 30000 nM in assay [4].

On to `CC[C@@H](C(=O)Nc1cccc2c(-c3nc(Nc4cccc(S(C)(=O)=O)c4F)ncc3F)c[nH]c12)N1CCCN(C)CC1` [Example 18], for which the IC50 is > 30000 nM in assay [1], 1280 nM in assay [2], 403 nM in assay [3] and > 30000 nM in assay [4].

For `CC[C@@H](C(=O)Nc1cccc2c(-c3nc(Nc4cccc(S(C)(=O)=O)c4F)ncc3C)c[nH]c12)N1C[C@H](C)N(C)[C@@H](C)C1` [Example 19, (S)-N-(3-(2-((2-fluoro-3-(methylsulfonyl)phenyl)amino)-5-methylpyrimidin-4-yl)-1H-indol-7-yl)-2-((3S,5S)-3,4,5-trimethylpiperazin-1-yl)butanamide], the IC50 in assay [1] was > 30000 nM; in assay [2] it was 423 nM; in assay [3], 143 nM; in assay [4], > 30000 nM.

For the compound `COC[C@@H](C(=O)Nc1cccc2c(-c3nc(Nc4cccc(S(C)(=O)=O)c4F)ncc3C)c[nH]c12)N1C[C@H](C)N(C)[C@@H](C)C1` [Example 21, (S)-N-(3-(2-((2-fluoro-3-(methylsulfonyl)phenyl)amino)-5-methylpyrimidin-4-yl)-1H-indol-7-yl)-3-methoxy-2-((3S,5S)-3,4,5-trimethylpiperazin-1-yl)propanamide], the IC50 in assay [1] was > 30000 nM; in assay [2], 2230 nM; in assay [3] it was 986 nM; in assay [4], > 30000 nM.

With `COC[C@H](C(=O)Nc1cccc2c(-c3nc(Nc4cccc(S(C)(=O)=O)c4F)ncc3C)c[nH]c12)N1C[C@H](C)N(C)[C@@H](C)C1` [Example 22, (R)-N-(3-(2-((2-fluoro-3-(methylsulfonyl)phenyl)amino)-5-methylpyrimidin-4-yl)-1H-indol-7-yl)-3-methoxy-2-((3S,5S)-3,4,5-trimethylpiperazin-1-yl)propanamide], the IC50 was 2560 nM in assay [1], 29 nM in assay [2], < 3 nM in assay [3] and > 30000 nM in assay [4].

Turning to `CC[C@@H](C(=O)Nc1cccc2c(-c3nc(Nc4cccc(S(C)(=O)=O)c4F)ncc3F)c[nH]c12)N1C[C@H](C)N(C)[C@@H](C)C1` [Example 23, (S)-N-(3-(5-fluoro-2-(2-fluoro-3-(methylsulfonyl)phenylamino)pyrimidin-4-yl)-1H-indol-7-yl)-2-((3S,5S)-3,4,5-trimethylpiperazin-1-yl)butanamide], the IC50 in assay [1] was > 30000 nM; in assay [2], 866 nM; in assay [3], 183 nM; in assay [4], > 30000 nM.

Consider `Cc1cnc(Nc2cccc(S(C)(=O)=O)c2F)nc1-c1c[nH]c2c(NC(=O)[C@@H](C)N3CCNCC3)cccc12` [Example 24, (R)-N-(3-(2-((2-fluoro-3-(methylsulfonyl)phenyl)amino)-5-methylpyrimidin-4-yl)-1H-indol-7-yl)-2-(piperazin-1-yl)propanamide], for which the IC50 was 3460 nM in assay [1], 42 nM in assay [2], 4.2 nM in assay [3] and > 30000 nM in assay [4].

For the compound `Cc1cnc(Nc2cccc(S(C)(=O)=O)c2F)nc1-c1c[nH]c2c(NC(=O)[C@H](C)N3CCNCC3)cccc12` [Example 25, (S)-N-(3-(2-((2-fluoro-3-(methylsulfonyl)phenyl)amino)-5-methylpyrimidin-4-yl)-1H-indol-7-yl)-2-(piperazin-1-yl)propanamide], the IC50 in assay [1] was 6590 nM; in assay [2] it was 63 nM; in assay [3], 22.8 nM; in assay [4], > 30000 nM.

Regarding `CC[C@H](C(=O)Nc1cccc2c(-c3nc(Nc4cccc(S(C)(=O)=O)c4F)ncc3C)c[nH]c12)N1C[C@@H](C)N[C@H](C)C1` [Example 26, (R)-2-((3R,5R)-3,5-dimethylpiperazin-1-yl)-N-(3-(2-((2-fluoro-3-(methylsulfonyl)phenyl)amino)-5-methylpyrimidin-4-yl)-1H-indol-7-yl)butanamide], the IC50 in assay [1] was 456 nM; in assay [2] it was 38 nM; in assay [3] it was < 3 nM; in assay [4] it was > 30000 nM.
